According to publication PMC5371824, “Phosphatidylinositol (4,5)-bisphosphate dynamically regulates the K2P background K^+ channel TASK-2” (Scientific Reports, 2017):
Residue numbers refer to the chain shown, from its start.

What was measured:
Format in all cases: biochemical
[1] = target: T1, TASK-2 (Mus musculus, UniProt F6V9U5); experiment: Excised inside-out patch recording from HEK-293 cells over-expressing TASK-2; conditions: 1 mM, inside-out patch
T1 construct: expressed in transfected cells; host or cells: HEK-293
T1 sequence (F6V9U5 1-502): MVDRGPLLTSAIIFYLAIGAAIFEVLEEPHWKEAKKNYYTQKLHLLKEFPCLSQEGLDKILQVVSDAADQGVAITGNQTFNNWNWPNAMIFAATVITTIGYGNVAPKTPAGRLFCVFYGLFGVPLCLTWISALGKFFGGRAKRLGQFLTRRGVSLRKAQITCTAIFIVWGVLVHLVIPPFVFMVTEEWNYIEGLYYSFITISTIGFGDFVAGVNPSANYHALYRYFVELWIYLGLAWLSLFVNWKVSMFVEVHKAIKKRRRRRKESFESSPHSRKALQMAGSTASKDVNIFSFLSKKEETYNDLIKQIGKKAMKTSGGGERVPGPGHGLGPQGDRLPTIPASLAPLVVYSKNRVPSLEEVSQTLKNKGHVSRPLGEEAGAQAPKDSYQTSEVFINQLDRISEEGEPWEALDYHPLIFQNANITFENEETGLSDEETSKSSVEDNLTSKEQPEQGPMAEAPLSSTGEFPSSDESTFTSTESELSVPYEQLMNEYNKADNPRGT
Experimental: HEK-293 cells were cultured in Dulbecco’s modified Eagle’s medium (DMEM) and F12 Ham’s medium at a 1:1 ratio and supplemented with 10% fetal calf serum at 37 °C in 5% CO2. For electrophysiological experiments, transient transfections were performed by electroporation, using CD8 cotransfection to identify effectively transfected cells. […] Experiments were performed 4–8 h after electroporation.
Recordings in the inside-out isolated patch configuration were performed in the gap-free mode at −60 mV. The inside aspect of the patch was bathed with a solution containing in mM: 10 KCl, 10 Glucose, 1 MgCl2, 10 EGTA, 1 Na3ATP, 0.1 GTP, 6.8 g/100 ml Sucrose, 10 Hepes/Tris, pH 7.4. The pipette contained in mM: 140 KCl, 10 Glucose, 6.8 g/100 ml Sucrose, 10 Hepes/Tris pH 7.4. For isolated patches, borosilicate capillaries (Harvard Apparatus GC150F-10 1.5 ODx0.86 ID) were fire polished to 4–5 MΩ and covered in beeswax. Acquisition was at 10 kHz with filter at 3 kHz (4-pole Bessel) and analysis was done with Clampfit 9.0 (Axon Instruments, Foster City, CA, USA). Traces shown are prints from crude Clampfit screen shots and quantification was done using the average currents were calculated at intervals using Clampfit after baseline adjustment.

[2] = target: T2, TASK-2-K254C (Mus musculus, UniProt F6V9U5, K254C); experiment: Excised inside-out patch recording, TASK-2-K254C mutant; design: key to MTSET effect: ✓ under “MTSET effect” indicates a significant increase in current after treatment with the methanesulfonate reagent; — in all cases stands for no significant effect
T2 construct: expressed in transfected cells; host or cells: HEK-293
T2 sequence (F6V9U5 1-502 K254C): T1 sequence (F6V9U5 1-502) with K254C
Experimental: (§1) Figure 6 Scanning of potential sites of interaction of TASK-2 with PI(4,5)P2 by cysteine mutagenesis of intracellular basic residues. (A) Schematic representation of TASK-2 topology showing the sequences of segments of the protein predicted to be intracellular or intracellular-facing. Basic residues are highlighted in red. (B) Recording from an excised inside-out patch of membrane taken from a HEK-293 cell over-expressing TASK-2. The patch was held at −60 mV in the presence of 1 mM ATP. At the intervals indicated by the boxes the intracellular aspect of the membrane was exposed to 300 μM Neomycin and then to 100 μM TPeA. At the end of the TPeA period the patch was additionally exposed to 1 mM MTSET as shown by the black box. (C and D) experiments as in (B), but with inside-out membrane patches obtained from cells expressing the mutants TASK-2-H327C and TASK-2-K297C respectively. In D the reducing agent DTT was also added at 2 mM. (E) Summary of experiments comparing the current before and after treatment with MTSET. […]
(§2) Recordings in the inside-out isolated patch configuration were performed in the gap-free mode at −60 mV. […] Traces shown are prints from crude Clampfit screen shots and quantification was done using the average currents were calculated at intervals using Clampfit after baseline adjustment.

[3] = target: T3, TASK-2-R4C (Mus musculus, UniProt F6V9U5, R4C); experiment: Excised inside-out patch recording, TASK-2-R4C mutant; design: key to MTSET effect: ✓ under “MTSET effect” indicates a significant increase in current after treatment with the methanesulfonate reagent; — in all cases stands for no significant effect
T3 construct: expressed in transfected cells; host or cells: HEK-293
T3 sequence (F6V9U5 1-502 R4C): T1 sequence (F6V9U5 1-502) with R4C
Experimental: as §1, §2

[4] = 1 mM, in the presence of TPeA, inside-out patch

- Effect of MTSET on WT TASK-2 activity ([1]; without TPeA, 1 mM ATP, Fig. S4): markedly reduced
- Effect of MTSET on TASK-2-K254C activity [2, 4]: significantly activated
- MTSET effect ([2]; mutation K254C): ✓
- Effect of MTSET on TASK-2-R4C activity [3, 4]: not affected
- MTSET effect ([3]; mutation R4C): —
SMILES: C[N+](C)(C)CCSS(C)(=O)=O.[Cl-] [MTSET, [2-(trimethylammonium)ethyl] methanethiosulfonate chloride]
- Effect of MTSET on WT TASK-2 channel activity ([1]; brief intracellular exposure in the presence of TPeA): Neither WT nor H327C channel activity is affected
